Molecules are shown by their SMILES. Values after ≈ are worked out from the molar mass of the structure shown. Read-outs that look alike come from different tables or passages of the source. Some results are limits rather than exact numbers.

The test system of one data set is rotavirus SA-11 strain. The data set can be described thus: Determination of antiviral activity (50% plaque reduction method). In kind it is cell-based, rotavirus SA-11 (in CV-1 green monkey kidney cells). The conditions noted are these: for IC50: 96 h, read-out: ID50 (50% plaque inhibition dose), rotavirus SA-11; for antiviral index (ED50 /ID50): ED50 CV-1 cells / ID50 rotavirus SA-11. As for the experimental part:
Determination of activity of test compound against rotavirus and evaluation thereof
rotavirus: To a liquid containing preserved rotavirus SA-11 strain was added trypsin (Sigma, acetylated trypsin type V-S) to 10 μg/ml and incubated at 37° C. for 30 minutes to activate the […], after which the culture was diluted to a concentration of 50 plaque forming units (PFU)/0.1 ml with Eagle's minimum essential medium (MEM) and used for the determination.
(§1) cultured cell: CV-1 cells which are green monkey kidney cell line were cultured in MEM supplemented with 10% calf serum. The culture cells were prepared to a concentration of 4×10^5 cells/ml, plated on a 24 well microplate and cultured for 2 days before use for the determination.
Activated rotavirus SA-11 […] were inoculated at 50 PFU/0.1 ml to CV-1 cells cultured in a monolayer on a 24 well microplate. The virus was allowed to adsorb to the cells in 1.5 hours at 37° C. and the surface layer of the cells was washed three times with MEM. Then, a multilayer agar medium (mixed medium of MEM, 3 μg/ml acetylated trypsin and agar at final concentration of 0.8%, all added at 45° C.) containing aliquot of test compounds was superposed on the cell layer. The cells were incubated at 37° C. for 4 days, immobilized with formalin, stained with a crystal violet solution and counted for plaque number.
The antiviral activity was expressed by the concentration of the test compound (50% plaque inhibition dose: ID50 =μg/ml), which decreased plaques formed in the control cell culture without the test compound, by 50%.
ED50 value was divided by ID50 value and the obtained value was used as an antiviral index for the determination of selective anti-rotaviral activity on infected cells in comparison to that on normal cells (host cells).

The subject of another data set is male ICR mice. The data set can be described thus: Toxicity test (mouse acute toxicity, minimum lethal dose). The format is in vivo. The conditions noted are these: oral (po), male ICR mice fasted overnight, survival 14 days. The source says:
A test compound was orally administered to male ICR mice (weight 25-35 g) fasted overnight, and survival thereof was monitored for 14 days.

Data set [1] in a line: Determination of cytotoxicity (50% cell growth inhibition effect). The format is cell-based, green monkey. The conditions noted are these: monkey; CV-1 cells, 2 days, cell count; read-out: ED50 (50% cell growth inhibition effect dose), CV-1 cells. As for the experimental part: as §1
CV-1 cells were prepared to a concentration of 4×10^4 cells/ml with MEM containing 10% calf serum and plated on a 24 well microplate, which was followed by culture for 2 days. The culture solution thereof was changed to MEM containing 10% calf serum and serially diluted test compounds at various concentrations, and the cells were cultured for 2 days. The cells were prepared into a homogeneous single cell suspension using 0.1% crude trypsin, and counted with a Coulter counter Model D (Coulter Electronics Ltd., England).
The 50% cell growth inhibition effect dose (ED50 =μg/ml) was expressed by the concentration of the test compound, which decreased cell numbers in the control cell culture without the test compound, by 50%.

The mark [2] stands for this setting: in Chlorocebus sabaeus, rotavirus SA-11 50 PFU, CV-1 cells, 37° C., 4 days, plaque count.
Where [3] appears, read: Rotavirus, CV-1, in Chlorocebus sabaeus.

As for `Nc1nc(Cl)cc(NCC2(CO)CCC2)n1` [compound No. 35, 2-Amino-6-chloro-4-[[(1-hydroxymethyl-1-cyclobutyl)methyl]amino]-pyrimidine], the IC50 in the data set on rotavirus SA-11 strain (setting [2]) was 7.8 µg/mL (≈ 32.1 µM). Further, the “mouse acute toxicity [lethal dose] (minimum lethal dose)” value (from here on “mouse acute toxicity [lethal dose]”) with male ICR mice is listed as more than 500 mg/kg.
With `CC(C)(CO)CNc1nc(N)nc(Cl)c1N` [compound 24], the “antiviral index (ED50 /ID50)” value with rotavirus SA-11 strain is 51.1. The IC50 in the data set on rotavirus SA-11 strain (setting [2]) worked out at 1.1 µg/mL (≈ 4.48 µM). Also, in data set [1], the CC50 at 48 h turned out to be 56.2 µg/mL (≈ 229 µM).
In the same order, the values of `CCC(CC)(CO)CNc1cc(Cl)nc(N)n1` [compound 23] are 23, 3.5 µg/mL (≈ 13.5 µM) and 80 µg/mL (≈ 309 µM).
Consider `Cl.Cl.Nc1nc(Cl)c(N)c(NCCO)n1` [compound No. 112, 6-Chloro-2,5-diamino-4-[(2-hydroxyethyl)amino]pyrimidine dihydrochloride], for which the “mouse acute toxicity [lethal dose]” value in the data set with male ICR mice is more than 1000 mg/kg.
For `Nc1nc(Cl)cc(NCC2(O)CCC2)n1` [compound 28], the “antiviral index (ED50 /ID50)” value with rotavirus SA-11 strain is more than 10. Moreover, the IC50 with rotavirus SA-11 strain (setting [3]) turned out to be 3 µg/mL (≈ 13.1 µM). In addition, the CC50 at 48 h in data set [1] is more than 30 µg/mL.
As for `Nc1nc(Cl)cc(NCC2(CO)CC(CCc3ccccc3)C2)n1` (centres unmarked) [compound 44], the “mouse acute toxicity [lethal dose]” value in the data set on male ICR mice is more than 500 mg/kg.
For the molecule `Nc1nc(O)c(N)c(NCC2(CO)CC2)n1` [compound 104], the IC50 in the data set with rotavirus SA-11 strain (setting [2]) worked out at 0.6 µg/mL (≈ 2.66 µM). Further, in the data set on male ICR mice, the “mouse acute toxicity [lethal dose]” value was more than 1000 mg/kg.
Turning to `CCC(CC)(CO)CNc1nc(N)nc(Cl)c1N` [compound 25], the “antiviral index (ED50 /ID50)” value in the data set on rotavirus SA-11 strain came out at 150.0. The IC50 with rotavirus SA-11 strain (setting [2]) was found to be 0.2 µg/mL (≈ 0.731 µM). In data set [1], the CC50 at 48 h amounted to 30 µg/mL (≈ 110 µM).
On to `Nc1nc(Cl)cc(NCC2(CO)CCCC2)n1` [compound 48], for which, in the data set on male ICR mice, the “mouse acute toxicity [lethal dose]” value is more than 500 mg/kg.
In the case of `Nc1nc(Cl)cc(NCC2(CO)CC(OCc3ccccc3)C2)n1` (centres unmarked) [compound 39], in the data set on male ICR mice, the “mouse acute toxicity [lethal dose]” value is given as more than 500 mg/kg.
Still for that read-out and setting: the result for `Nc1ncc(Br)c(NCC2(CO)CC(CCc3ccccc3)C2)n1` (centres unmarked) [compound No. 7] reads more than 500 mg/kg.
`Nc1nc(Cl)c(N)c(NCC2(CO)CCC2)n1` [compound 59]: the “antiviral index (ED50 /ID50)” value with rotavirus SA-11 strain is listed as 2. The IC50 in the data set with rotavirus SA-11 strain (setting [2]) is 1.9 µg/mL (≈ 7.37 µM). The CC50 at 48 h in data set [1] came to 3.6 µg/mL (≈ 14 µM). In the data set on male ICR mice, the “mouse acute toxicity [lethal dose]” value is more than 500 mg/kg.
Regarding `Nc1c(Cl)ncnc1NCC1(CO)CCC1` [compound 18], the “mouse acute toxicity [lethal dose]” value in the data set on male ICR mice is listed as more than 500 mg/kg.
For `Nc1nc(Cl)cc(NCC2(CO)CC(c3ccccc3)C2)n1` (centres unmarked) [compound 47], the “mouse acute toxicity [lethal dose]” value in the data set with male ICR mice is more than 500 mg/kg.
On to `COc1cc(NCC2(CO)CCC2)nc(N)n1` [compound 86], for which the IC50 with rotavirus SA-11 strain (setting [2]) is 2.2 µg/mL (≈ 9.23 µM).
Regarding `Nc1nccc(NCC2(CO)CC(OCc3ccccc3)C2)n1` (centres unmarked) [compound No. 3], the IC50 with rotavirus SA-11 strain (setting [2]) was 12.6 µg/mL (≈ 40.1 µM).
Take `Nc1nc(Cl)c(N)c(NCCCO)n1` [compound No. 113, 6-Chloro-2,5-diamino-4-[(3-hydroxypropyl)amino]pyrimidine]: the “antiviral index (ED50 /ID50)” value in the data set with rotavirus SA-11 strain was more than 38. For the same molecule, in the data set with rotavirus SA-11 strain (setting [2]), the IC50 is 2.6 µg/mL (≈ 11.9 µM). The CC50 at 48 h in data set [1] was more than 100 µg/mL. In the data set with male ICR mice, the “mouse acute toxicity [lethal dose]” value is more than 1000 mg/kg.
As to `Nc1nc(Cl)cc(NCC2(CO)CC(Cc3ccccc3)C2)n1` (centres unmarked) [compound 43], the “mouse acute toxicity [lethal dose]” value in the data set on male ICR mice is reported as more than 500 mg/kg.
On to `Nc1nccc(NCC2(CO)CC(CCc3ccccc3)C2)n1` (centres unmarked) [compound No. 5], for which, in the data set with male ICR mice, the “mouse acute toxicity [lethal dose]” value is given as more than 500 mg/kg.
As to `Nc1nc(Cl)c(N)c(NCC2(CO)CC2)n1` [compound 58], the “antiviral index (ED50 /ID50)” value in the data set on rotavirus SA-11 strain is recorded as more than 67. Besides, the IC50 in the data set with rotavirus SA-11 strain (setting [3]) amounted to 1.5 µg/mL (≈ 6.16 µM). In data set [1], the CC50 at 48 h is more than 100 µg/mL. For the same molecule, the “mouse acute toxicity [lethal dose]” value with male ICR mice is listed as more than 1000 mg/kg.
Take `Nc1ncc(Br)c(NCC2(CO)CCC2)n1` [compound No. 6, 2-Amino-5-bromo-4-[[(1-hydroxymethyl-1-cyclobutyl)methyl]amino]pyrimidine]: the IC50 with rotavirus SA-11 strain (setting [2]) stood at 2.9 µg/mL (≈ 10.1 µM). In addition, in the data set with male ICR mice, the “mouse acute toxicity [lethal dose]” value is more than 500 mg/kg.
For `CC(C)(CO)CNc1cc(Cl)nc(N)n1` [compound No. 20, 2-Amino-6-chloro-4-[(3-hydroxy-2,2-dimethylpropyl)amino]pyrimidine], in the data set with rotavirus SA-11 strain, the “antiviral index (ED50 /ID50)” value is given as more than 9.5. Also, in the data set with rotavirus SA-11 strain (setting [2]), the IC50 is 10.5 µg/mL (≈ 45.5 µM). The CC50 at 48 h in data set [1] was more than 1 µg/mL.

(Values after patent US6080750A, “Pyrimidine compound and anti-rotavirus composition” (priority 1996, dated 2000).)
